Results taken from US20120149697A1 (priority 2009, published 2012).

Test system: ScGT1 cells
Conditions: for cells remained viable: mouse

In the case of fulvic acids [FA], the “cell viability (cytotoxicity effect)” value is reported as “remain viable” and the cells remained viable is reported as 94%.
humic acids [HA] was tested, and the “cell viability (cytotoxicity effect)” value was “remain viable” and the cells remained viable was 96%.
